Experiment [1] in a line: Binding affinity to HT3AGTT sequence of bulge DNA by fluorescence quenching.
The nature of experiment [2]: Binding affinity to HT3AGT sequence of bulge DNA by fluorescence quenching.
The target in experiment [3] is Nucleic Acid. The experiment in a line: Binding affinity to DA12:DAc12 oligomer sequence of bulge DNA by fluorescence quenching. Type of experiment: nucleic-acid assay.
For experiment [4], the target named is HT4AGTT bulged DNA. The experiment in a line: Binding affinity to HT4AGTT sequence of bulge DNA by fluorescence quenching.
Experiment [5] is described as follows: Binding affinity to HT3AT sequence of bulge DNA by fluorescence quenching.
Experiment [6] can be described thus: Binding affinity to HT3AGTA sequence of bulge DNA by fluorescence quenching.
Experiment [7] in a line: Binding affinity to HT3AGCTT sequence of bulge DNA by fluorescence quenching.
Experiment [8] is described as follows: Binding affinity to DA12:BA14 sequence of bulge DNA by fluorescence quenching.

For five molecules, Kd results are on record in ChEMBL document CHEMBL1152786, “Designed DNA probes from the neocarzinostatin family: impact of glycosyl linkage stereochemistry on bulge base binding” (Bioorg Med Chem, 2009).

Each structure is given as a SMILES string.

The term Kd denotes a measure of binding affinity in units of concentration. Low values mean a tighter complex, high ones a looser complex. Turning to `CN[C@H]1[C@H](O[C@@H]2c3cc4c(cc3[C@@H]3[C@H]2OC(=O)[C@@]32C(=O)C=Cc3c(C)cc(OC)cc32)[C@@](O)([C@H]2COC(=O)O2)C=C4)O[C@@H](C)[C@H](O)[C@@H]1O`, the Kd in experiment [1] worked out at 33 nM; in experiment [2], 20600 nM; in experiment [3], 307000 nM; in experiment [4], 26 nM; in experiment [5], 10000 nM; in experiment [6], 12500 nM. In addition, the results for the dissociation constant (Kd) in experiment [7] and in experiment [8] were 710 nM and 2180 nM, respectively.
As for `CN[C@H]1[C@H](O[C@H]2c3cc4ccccc4cc3[C@H]3[C@@H]2C=C[C@]32C(=O)C=Cc3ccc(OC)cc32)O[C@H](C)[C@H](O)[C@@H]1O`, the Kd turned out to be 200 nM in experiment [1]; 14000 nM in experiment [2]; 190 nM in experiment [4]; 8200 nM in experiment [5]; 390 nM in experiment [6]; 1800 nM in experiment [7]. This molecule also returned a Kd in experiment [8] of 400 nM.
Regarding `CN[C@H]1[C@H](O[C@@H]2c3cc4ccccc4cc3[C@@H]3[C@H]2C=C[C@@]32C(=O)C=Cc3ccc(OC)cc32)O[C@H](C)[C@H](O)[C@@H]1O`, the dissociation constant Kd in experiment [1] amounted to 1600 nM; in experiment [2], 5500 nM; in experiment [4], 1500 nM; in experiment [5] it was 9200 nM; in experiment [6] it was 440 nM; in experiment [7], 1950 nM. This molecule gave a Kd in experiment [8] of 430 nM.
On to `CN[C@H]1[C@@H](O[C@@H]2c3cc4ccccc4cc3[C@@H]3[C@H]2C=C[C@@]32C(=O)C=Cc3ccc(OC)cc32)O[C@H](C)[C@H](O)[C@@H]1O`, for which the Kd in experiment [1] turned out to be 130 nM; in experiment [2] it was 4100 nM; in experiment [4] it was 240 nM; in experiment [5], 13000 nM; in experiment [6] it was 1400 nM; in experiment [7] it was 1700 nM. Also, in experiment [8], the Kd came out at 800 nM.
Regarding `CN[C@H]1[C@@H](O[C@H]2c3cc4ccccc4cc3[C@H]3[C@@H]2C=C[C@]32C(=O)C=Cc3ccc(OC)cc32)O[C@H](C)[C@H](O)[C@@H]1O`, the dissociation constant (Kd) in experiment [1] is 80 nM; in experiment [2], 8400 nM; in experiment [4], 110 nM; in experiment [5], 10000 nM; in experiment [6] it was 220 nM; in experiment [7], 2100 nM. The molecule also showed a Kd in experiment [8] of 600 nM.
